Experimental data: ChEMBL document CHEMBL4507316 (2021)

Assays:
[1] = target: Mitogen-activated protein kinase kinase kinase 8 (Homo sapiens) (UniProt P41279); assay: COT ProQinase selectivity panel; details: Compound concentration 1.0 uM
[2] = target: Protein kinase C iota type (Homo sapiens) (UniProt P41743); assay: PKC-iota ProQinase selectivity panel; details: Compound concentration 1.0 uM
[3] = target: Activin receptor type-1 (Homo sapiens) (UniProt Q04771); assay: ACV-R1 ProQinase selectivity panel; details: Compound concentration 1.0 uM
[4] = target: Serine/threonine-protein kinase WNK2 (Homo sapiens) (UniProt Q9Y3S1); assay: WNK2 ProQinase selectivity panel; details: Compound concentration 1.0 uM
[5] = target: NUAK family SNF1-like kinase 1 (Homo sapiens) (UniProt O60285); assay: ARK5 ProQinase selectivity panel; details: Compound concentration 1.0 uM
[6] = target: CDK8/Cyclin C (Homo sapiens) (UniProt P49336+P24863); assay: CDK8/CycC ProQinase selectivity panel; assay type: protein-complex assay; details: Compound concentration 1.0 uM
[7] = target: Tyrosine-protein kinase Tec (Homo sapiens) (UniProt P42680); assay: TEC ProQinase selectivity panel; details: Compound concentration 1.0 uM
[8] = target: Inhibitor of nuclear factor kappa-B kinase subunit epsilon (Homo sapiens) (UniProt Q14164); assay: IKK-epsilon ProQinase selectivity panel; details: Compound concentration 1.0 uM
[9] = system: Epidermal growth factor receptor (Homo sapiens), P00533 [L861Q]; assay: EGF-R L861Q ProQinase selectivity panel; details: Compound concentration 1.0 uM
[10] = target: Non-receptor tyrosine-protein kinase TYK2 (Homo sapiens) (UniProt P29597); assay: TYK2 ProQinase selectivity panel; details: Compound concentration 1.0 uM
[11] = target: Tyrosine-protein kinase Fyn (Homo sapiens) (UniProt P06241); assay: FYN ProQinase selectivity panel; details: Compound concentration 1.0 uM
[12] = target: Death-associated protein kinase 1 (Homo sapiens) (UniProt P53355); assay: DAPK1 ProQinase selectivity panel; details: Compound concentration 1.0 uM
[13] = target: Protein kinase C eta type (Homo sapiens) (UniProt P24723); assay: PKC-eta ProQinase selectivity panel; details: Compound concentration 1.0 uM
[14] = target: Receptor tyrosine-protein kinase erbB-4 (Homo sapiens) (UniProt Q15303); assay: ERBB4 ProQinase selectivity panel; details: Compound concentration 1.0 uM
[15] = target: RAC-gamma serine/threonine-protein kinase (Homo sapiens) (UniProt Q9Y243); assay: AKT3 ProQinase selectivity panel; details: Compound concentration 1.0 uM
[16] = target: Cyclin-dependent kinase 2/cyclin E (Homo sapiens) (UniProt P24864+P24941+O96020); assay: CDK2/CycE ProQinase selectivity panel; assay type: protein-complex assay; details: Compound concentration 1.0 uM
[17] = target: Ribosomal protein S6 kinase alpha-4 (Homo sapiens) (UniProt O75676); assay: RPS6KA4 ProQinase selectivity panel; details: Compound concentration 1.0 uM
[18] = target: Muscarinic acetylcholine receptor M1 (Homo sapiens) (UniProt P11229); details: Compound concentration 10.0 uM
[19] = target: Protein kinase C beta type (Homo sapiens) (UniProt P05771); assay: PKC-beta1 ProQinase selectivity panel; details: Compound concentration 1.0 uM
[20] = target: Proto-oncogene tyrosine-protein kinase Src (Homo sapiens) (UniProt P12931); assay: SRC ProQinase selectivity panel; details: Compound concentration 1.0 uM
[21] = target: Muscarinic acetylcholine receptor M3 (Homo sapiens) (UniProt P20309); details: Compound concentration 10.0 uM
[22] = target: Macrophage colony-stimulating factor 1 receptor (Homo sapiens) (UniProt P07333); assay: CSF1-R ProQinase selectivity panel; details: Compound concentration 1.0 uM
[23] = target: Mitogen-activated protein kinase 13 (Homo sapiens) (UniProt O15264); assay: p38-delta ProQinase selectivity panel; details: Compound concentration 1.0 uM
[24] = target: Muscarinic acetylcholine receptor M5 (Homo sapiens) (UniProt P08912); details: Compound concentration 10.0 uM
[25] = target: 5'-AMP-activated protein kinase catalytic subunit alpha-1 (Homo sapiens) (UniProt Q13131); assay: AMPK-alpha1 ProQinase selectivity panel; details: Compound concentration 1.0 uM
[26] = target: Death-associated protein kinase 3 (Homo sapiens) (UniProt O43293); assay: DAPK3 ProQinase selectivity panel; details: Compound concentration 1.0 uM
[27] = system: Epidermal growth factor receptor (Homo sapiens), P00533 [G719C]; assay: EGF-R G719C ProQinase selectivity panel; details: Compound concentration 1.0 uM
[28] = target: Tyrosine-protein kinase Blk (Homo sapiens) (UniProt P51451); assay: BLK ProQinase selectivity panel; details: Compound concentration 1.0 uM
[29] = target: Activin receptor type-1-like (Homo sapiens) (UniProt P37023); assay: ACV-RL1 ProQinase selectivity panel; details: Compound concentration 1.0 uM
[30] = target: Fibroblast growth factor receptor 3 (Homo sapiens) (UniProt P22607); assay: FGF-R3 wt ProQinase selectivity panel; details: Compound concentration 1.0 uM
[31] = target: Tyrosine-protein kinase JAK1 (Homo sapiens) (UniProt P23458); assay: JAK1 ProQinase selectivity panel; details: Compound concentration 1.0 uM
[32] = target: Serine/threonine-protein kinase Nek9 (Homo sapiens) (UniProt Q8TD19); assay: NEK9 ProQinase selectivity panel; details: Compound concentration 1.0 uM
[33] = target: Dual specificity protein kinase CLK4 (Homo sapiens) (UniProt Q9HAZ1); assay: CLK4 ProQinase selectivity panel; details: Compound concentration 1.0 uM
[34] = target: Dual specificity protein kinase CLK3 (Homo sapiens) (UniProt P49761); assay: CLK3 ProQinase selectivity panel; details: Compound concentration 1.0 uM
[35] = target: cAMP-dependent protein kinase catalytic subunit alpha (Homo sapiens) (UniProt P17612); assay: PKA ProQinase selectivity panel; details: Compound concentration 1.0 uM
[36] = target: Serine/threonine-protein kinase mTOR (Homo sapiens) (UniProt P42345); assay: mTOR ProQinase selectivity panel; details: Compound concentration 1.0 uM
[37] = system: Hepatocyte growth factor receptor (Homo sapiens), P08581 [Y1230C]; assay: MET Y1230C ProQinase selectivity panel; details: Compound concentration 1.0 uM
[38] = target: Testis-specific serine/threonine-protein kinase 2 (Homo sapiens) (UniProt Q96PF2); assay: TSK2 ProQinase selectivity panel; details: Compound concentration 1.0 uM
[39] = target: Tyrosine-protein kinase FRK (Homo sapiens) (UniProt P42685); assay: FRK ProQinase selectivity panel; details: Compound concentration 1.0 uM
[40] = target: Protein kinase C beta type (Homo sapiens) (UniProt P05771); assay: PKC-beta2 ProQinase selectivity panel; details: Compound concentration 1.0 uM
[41] = target: Myotonin-protein kinase (Homo sapiens) (UniProt Q09013); assay: DMPK ProQinase selectivity panel; details: Compound concentration 1.0 uM
[42] = target: Serine/threonine-protein kinase PLK2 (Homo sapiens) (UniProt Q9NYY3); assay: SNK ProQinase selectivity panel; details: Compound concentration 1.0 uM
[43] = target: Serine/threonine-protein kinase 33 (Homo sapiens) (UniProt Q9BYT3); assay: STK33 ProQinase selectivity panel; details: Compound concentration 1.0 uM
[44] = target: Myosin light chain kinase (Homo sapiens) (UniProt Q32MK0); assay: MYLK3 ProQinase selectivity panel; details: Compound concentration 1.0 uM
[45] = target: Protein-tyrosine kinase 2-beta (Homo sapiens) (UniProt Q14289); assay: PYK2 ProQinase selectivity panel; details: Compound concentration 1.0 uM
[46] = target: Serine/threonine-protein kinase VRK1 (Homo sapiens) (UniProt Q99986); assay: VRK1 ProQinase selectivity panel; details: Compound concentration 1.0 uM
[47] = target: Homeodomain-interacting protein kinase 4 (Homo sapiens) (UniProt Q8NE63); assay: HIPK4 ProQinase selectivity panel; details: Compound concentration 1.0 uM
[48] = target: Serine/threonine-protein kinase pim-3 (Homo sapiens) (UniProt Q86V86); assay: PIM3 ProQinase selectivity panel; details: Compound concentration 1.0 uM
[49] = target: NUAK family SNF1-like kinase 2 (Homo sapiens) (UniProt Q9H093); assay: SNARK ProQinase selectivity panel; details: Compound concentration 1.0 uM
[50] = target: Ribosomal protein S6 kinase alpha-1 (Homo sapiens) (UniProt Q15418); assay: RPS6KA1 ProQinase selectivity panel; details: Compound concentration 1.0 uM
[51] = target: Mitogen-activated protein kinase 1 (Homo sapiens) (UniProt P28482); assay: ERK2 ProQinase selectivity panel; details: Compound concentration 1.0 uM

Protein kinase C beta type (Homo sapiens), sequence (P05771 2-671 limits assumed): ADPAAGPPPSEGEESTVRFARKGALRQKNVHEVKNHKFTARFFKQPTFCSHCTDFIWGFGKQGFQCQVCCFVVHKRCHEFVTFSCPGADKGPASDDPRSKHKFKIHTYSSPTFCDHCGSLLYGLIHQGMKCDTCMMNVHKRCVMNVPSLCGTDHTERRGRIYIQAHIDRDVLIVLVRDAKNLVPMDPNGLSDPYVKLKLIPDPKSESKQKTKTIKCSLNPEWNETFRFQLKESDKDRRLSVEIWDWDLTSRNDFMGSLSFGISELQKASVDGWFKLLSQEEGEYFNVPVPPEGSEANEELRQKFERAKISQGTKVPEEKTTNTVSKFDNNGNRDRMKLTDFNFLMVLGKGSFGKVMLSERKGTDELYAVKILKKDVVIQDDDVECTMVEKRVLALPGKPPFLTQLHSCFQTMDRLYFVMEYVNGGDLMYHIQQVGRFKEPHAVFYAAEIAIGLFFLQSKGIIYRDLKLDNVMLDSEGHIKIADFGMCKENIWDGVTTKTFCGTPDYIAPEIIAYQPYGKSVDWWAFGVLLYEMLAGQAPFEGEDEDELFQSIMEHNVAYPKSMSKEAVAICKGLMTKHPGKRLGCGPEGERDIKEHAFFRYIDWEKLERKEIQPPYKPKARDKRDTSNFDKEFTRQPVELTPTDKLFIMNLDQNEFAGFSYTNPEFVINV
Mitogen-activated protein kinase kinase kinase 8 (Homo sapiens), sequence (P41279 whole entry): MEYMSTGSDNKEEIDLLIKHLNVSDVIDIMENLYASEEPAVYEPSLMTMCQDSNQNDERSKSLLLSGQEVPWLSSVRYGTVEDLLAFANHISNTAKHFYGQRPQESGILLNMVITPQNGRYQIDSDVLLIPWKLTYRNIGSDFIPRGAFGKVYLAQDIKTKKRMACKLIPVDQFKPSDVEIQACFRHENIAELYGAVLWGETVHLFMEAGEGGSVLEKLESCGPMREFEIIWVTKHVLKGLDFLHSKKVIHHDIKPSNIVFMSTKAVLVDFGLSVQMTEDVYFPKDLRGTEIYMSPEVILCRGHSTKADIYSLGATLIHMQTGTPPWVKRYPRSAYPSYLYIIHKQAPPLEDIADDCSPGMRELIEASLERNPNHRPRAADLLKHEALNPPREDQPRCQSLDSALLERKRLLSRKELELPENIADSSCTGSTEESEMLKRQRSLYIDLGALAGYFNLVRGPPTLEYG
Mitogen-activated protein kinase 13 (Homo sapiens), sequence (O15264 whole entry): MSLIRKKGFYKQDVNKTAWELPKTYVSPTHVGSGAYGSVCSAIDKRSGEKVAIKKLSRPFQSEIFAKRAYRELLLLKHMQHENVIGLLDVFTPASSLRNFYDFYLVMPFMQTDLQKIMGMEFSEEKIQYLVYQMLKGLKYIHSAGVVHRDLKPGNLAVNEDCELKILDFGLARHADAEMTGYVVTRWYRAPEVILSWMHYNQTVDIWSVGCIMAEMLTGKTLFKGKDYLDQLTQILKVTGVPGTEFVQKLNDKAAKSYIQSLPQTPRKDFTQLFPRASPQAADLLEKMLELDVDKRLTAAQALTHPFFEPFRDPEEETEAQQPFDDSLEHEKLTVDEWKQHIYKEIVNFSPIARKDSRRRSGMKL
Muscarinic acetylcholine receptor M1 (Homo sapiens), sequence (P11229 whole entry): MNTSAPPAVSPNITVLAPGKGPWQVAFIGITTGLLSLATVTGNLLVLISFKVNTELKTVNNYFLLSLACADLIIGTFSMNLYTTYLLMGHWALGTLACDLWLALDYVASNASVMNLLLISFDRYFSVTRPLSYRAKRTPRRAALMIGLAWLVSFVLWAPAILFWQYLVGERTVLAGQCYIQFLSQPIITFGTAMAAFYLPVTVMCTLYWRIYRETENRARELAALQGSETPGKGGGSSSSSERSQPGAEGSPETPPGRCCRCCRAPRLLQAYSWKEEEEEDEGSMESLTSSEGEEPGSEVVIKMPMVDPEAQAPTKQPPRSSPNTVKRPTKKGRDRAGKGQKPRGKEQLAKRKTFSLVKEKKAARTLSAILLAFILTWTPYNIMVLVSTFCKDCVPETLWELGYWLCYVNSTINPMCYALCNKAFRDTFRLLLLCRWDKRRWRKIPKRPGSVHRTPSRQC
Ribosomal protein S6 kinase alpha-4 (Homo sapiens), sequence (O75676 whole entry, looked up): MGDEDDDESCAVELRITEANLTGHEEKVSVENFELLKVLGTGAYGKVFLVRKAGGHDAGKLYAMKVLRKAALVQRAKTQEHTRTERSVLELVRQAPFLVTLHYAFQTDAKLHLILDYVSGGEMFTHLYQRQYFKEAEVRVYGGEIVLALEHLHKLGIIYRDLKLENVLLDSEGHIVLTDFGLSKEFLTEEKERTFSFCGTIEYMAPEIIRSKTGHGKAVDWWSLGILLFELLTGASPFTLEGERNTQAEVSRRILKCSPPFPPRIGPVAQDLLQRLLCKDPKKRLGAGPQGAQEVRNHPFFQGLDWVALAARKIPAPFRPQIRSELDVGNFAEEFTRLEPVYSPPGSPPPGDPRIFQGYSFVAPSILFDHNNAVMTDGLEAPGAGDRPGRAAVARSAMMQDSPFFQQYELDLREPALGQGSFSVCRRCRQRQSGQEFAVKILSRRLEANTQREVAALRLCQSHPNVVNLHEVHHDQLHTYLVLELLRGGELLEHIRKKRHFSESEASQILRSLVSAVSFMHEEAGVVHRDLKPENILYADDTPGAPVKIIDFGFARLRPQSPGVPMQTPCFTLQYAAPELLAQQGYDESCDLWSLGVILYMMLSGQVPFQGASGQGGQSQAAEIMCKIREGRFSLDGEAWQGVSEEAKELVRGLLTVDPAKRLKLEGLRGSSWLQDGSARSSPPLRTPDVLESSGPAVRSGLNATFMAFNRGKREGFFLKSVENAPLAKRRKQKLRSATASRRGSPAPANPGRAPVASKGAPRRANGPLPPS
Myosin light chain kinase (Homo sapiens), sequence (Q32MK0 whole entry): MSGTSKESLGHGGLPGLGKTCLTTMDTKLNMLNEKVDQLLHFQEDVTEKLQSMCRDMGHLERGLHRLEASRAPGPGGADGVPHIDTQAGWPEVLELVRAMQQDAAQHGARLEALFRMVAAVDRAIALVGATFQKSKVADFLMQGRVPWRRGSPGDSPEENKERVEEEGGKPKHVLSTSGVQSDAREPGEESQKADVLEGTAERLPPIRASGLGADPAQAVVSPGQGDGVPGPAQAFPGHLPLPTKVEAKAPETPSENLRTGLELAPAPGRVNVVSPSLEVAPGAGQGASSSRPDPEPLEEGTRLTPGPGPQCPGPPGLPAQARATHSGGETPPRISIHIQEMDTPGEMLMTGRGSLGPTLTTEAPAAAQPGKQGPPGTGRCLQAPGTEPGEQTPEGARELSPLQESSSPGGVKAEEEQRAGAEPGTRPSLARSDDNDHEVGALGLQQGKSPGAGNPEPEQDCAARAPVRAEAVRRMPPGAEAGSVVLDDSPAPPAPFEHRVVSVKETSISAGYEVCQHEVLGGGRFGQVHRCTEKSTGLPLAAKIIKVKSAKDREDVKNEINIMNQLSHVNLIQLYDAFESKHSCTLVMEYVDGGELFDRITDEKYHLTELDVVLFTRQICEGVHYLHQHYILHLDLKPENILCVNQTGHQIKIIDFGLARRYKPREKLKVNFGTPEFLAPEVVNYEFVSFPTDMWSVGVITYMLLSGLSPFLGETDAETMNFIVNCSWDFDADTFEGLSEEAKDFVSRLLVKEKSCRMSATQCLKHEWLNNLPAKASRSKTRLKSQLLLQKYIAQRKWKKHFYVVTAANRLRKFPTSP
Serine/threonine-protein kinase Nek9 (Homo sapiens), sequence (Q8TD19 whole entry): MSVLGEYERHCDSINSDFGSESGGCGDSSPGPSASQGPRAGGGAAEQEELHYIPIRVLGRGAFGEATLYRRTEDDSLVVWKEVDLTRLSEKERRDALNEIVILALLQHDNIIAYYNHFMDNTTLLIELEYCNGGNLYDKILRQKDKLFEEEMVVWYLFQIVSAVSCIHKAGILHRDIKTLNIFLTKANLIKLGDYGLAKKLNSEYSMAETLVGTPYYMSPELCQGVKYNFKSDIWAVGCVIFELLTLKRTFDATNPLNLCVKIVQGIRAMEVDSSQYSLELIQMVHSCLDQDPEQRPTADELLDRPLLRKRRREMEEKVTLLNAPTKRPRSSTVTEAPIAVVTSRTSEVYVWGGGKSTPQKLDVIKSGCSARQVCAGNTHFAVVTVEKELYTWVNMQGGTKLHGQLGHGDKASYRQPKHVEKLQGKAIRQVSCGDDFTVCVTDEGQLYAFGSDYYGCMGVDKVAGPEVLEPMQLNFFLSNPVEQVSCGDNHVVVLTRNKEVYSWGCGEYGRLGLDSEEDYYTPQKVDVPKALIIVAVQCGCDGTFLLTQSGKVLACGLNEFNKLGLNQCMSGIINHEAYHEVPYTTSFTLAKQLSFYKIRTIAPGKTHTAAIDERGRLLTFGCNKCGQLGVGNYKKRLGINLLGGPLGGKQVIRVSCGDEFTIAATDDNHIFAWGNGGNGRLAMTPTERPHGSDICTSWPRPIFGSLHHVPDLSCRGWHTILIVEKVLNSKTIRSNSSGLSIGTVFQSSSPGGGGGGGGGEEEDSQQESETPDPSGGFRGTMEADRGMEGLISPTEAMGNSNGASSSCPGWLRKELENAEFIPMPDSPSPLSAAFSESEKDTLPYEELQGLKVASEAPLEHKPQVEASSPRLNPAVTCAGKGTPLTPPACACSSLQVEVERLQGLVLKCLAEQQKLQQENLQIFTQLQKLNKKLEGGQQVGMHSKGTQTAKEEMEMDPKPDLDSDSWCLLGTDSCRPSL

O=C1c2ccc(Nc3ccc(F)cc3F)cc2CCc2ccc(OC[C@H](O)CO)cc21 [Skepinone-L]
inactive: % Residual activity with Skepinone-L [1] 91% | % Residual activity with Skepinone-L [2] 91% | % Residual activity with Skepinone-L [3] 94% | % Residual activity with Skepinone-L [4] 95% | % Residual activity with Skepinone-L [5] 115% | % Residual activity with Skepinone-L [6] 105% | % Residual activity with Skepinone-L [7] 115% | % Residual activity with Skepinone-L [8] 103% | % Residual activity with Skepinone-L [9] 94% | % Residual activity with Skepinone-L [10] 96% | % Residual activity with Skepinone-L [11] 124% | % Residual activity with Skepinone-L [12] 86% | % Residual activity with Skepinone-L [13] 97% | % Residual activity with Skepinone-L [14] 106% | % Residual activity with Skepinone-L [15] 94% | % Residual activity with Skepinone-L [16] 85% | % Residual activity with Skepinone-L [17] 107% | inhibition [18] 45.5% | % Residual activity with Skepinone-L [19] 103% | % Residual activity with Skepinone-L [20] 119% | inhibition [21] 11.2% | % Residual activity with Skepinone-L [22] 106% | % Residual activity with Skepinone-L [23] 80% | inhibition [24] -9.46% | % Residual activity with Skepinone-L [25] 84% | % Residual activity with Skepinone-L [26] 89% | % Residual activity with Skepinone-L [27] 74% | % Residual activity with Skepinone-L [28] 107% | % Residual activity with Skepinone-L [29] 105% | % Residual activity with Skepinone-L [30] 102% | % Residual activity with Skepinone-L [31] 93% | % Residual activity with Skepinone-L [32] 104% | % Residual activity with Skepinone-L [33] 100% | % Residual activity with Skepinone-L [34] 88% | % Residual activity with Skepinone-L [35] 94% | % Residual activity with Skepinone-L [36] 97% | % Residual activity with Skepinone-L [37] 97% | % Residual activity with Skepinone-L [38] 82% | % Residual activity with Skepinone-L [39] 111% | % Residual activity with Skepinone-L [40] 97% | % Residual activity with Skepinone-L [41] 99% | % Residual activity with Skepinone-L [42] 103% | % Residual activity with Skepinone-L [43] 94% | % Residual activity with Skepinone-L [44] 85% | % Residual activity with Skepinone-L [45] 102% | % Residual activity with Skepinone-L [46] 88% | % Residual activity with Skepinone-L [47] 116% | % Residual activity with Skepinone-L [48] 78% | % Residual activity with Skepinone-L [49] 115% | % Residual activity with Skepinone-L [50] 89% | % Residual activity with Skepinone-L [51] 83%
